Measured values: US11873298B2, “Compounds and uses thereof” (JANSSEN PHARMACEUTICA NV, priority 2017, dated 2024)
pIC50: −log10 of the molar value.

Legend:
SCD5 = biological target: T1, SCD5 (Homo sapiens, UniProt Q86SK9); assay: Growth inhibition of humanized yeast strain expressing SCD5 as sole desaturase; assay type: cell-based
T1 construct: host or cells: S. cerevisiae ole1Δ strain (W303 pdr1Δ pdr3Δ background), plasmid pRS316 with TDH3 promoter and CYC1 terminator
T1 sequence (Q86SK9 1-330): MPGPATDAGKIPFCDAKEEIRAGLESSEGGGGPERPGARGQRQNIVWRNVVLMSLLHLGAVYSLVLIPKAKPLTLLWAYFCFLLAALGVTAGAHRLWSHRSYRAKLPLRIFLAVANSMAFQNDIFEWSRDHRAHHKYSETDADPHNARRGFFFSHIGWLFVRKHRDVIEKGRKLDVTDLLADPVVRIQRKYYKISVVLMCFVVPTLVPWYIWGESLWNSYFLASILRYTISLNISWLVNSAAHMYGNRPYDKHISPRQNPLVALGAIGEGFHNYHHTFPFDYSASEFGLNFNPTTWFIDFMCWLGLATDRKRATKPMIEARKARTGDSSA
Outline: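 ole1Δ yeast (W303 pdr1Δ pdr3Δ background) carrying plasmid-borne Ole1, SCD1 or SCD5, grown in uracil-free media; cultures pre-grown in raffinose, seeded at 2× density 0.02 in galactose media with compound. Growth read as OD600 after 24 h at 30° C. for Ole1, 40 h for SCD1/SCD5.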

SCD1 = biological target: T2, SCD1 (Homo sapiens, UniProt O00767); assay: Growth inhibition of humanized yeast strain expressing SCD1 as sole desaturase; assay type: cell-based
T2 construct: host or cells: S. cerevisiae ole1Δ strain (W303 pdr1Δ pdr3Δ background), plasmid pRS316 with TDH3 promoter and CYC1 terminator
T2 sequence (O00767 1-359): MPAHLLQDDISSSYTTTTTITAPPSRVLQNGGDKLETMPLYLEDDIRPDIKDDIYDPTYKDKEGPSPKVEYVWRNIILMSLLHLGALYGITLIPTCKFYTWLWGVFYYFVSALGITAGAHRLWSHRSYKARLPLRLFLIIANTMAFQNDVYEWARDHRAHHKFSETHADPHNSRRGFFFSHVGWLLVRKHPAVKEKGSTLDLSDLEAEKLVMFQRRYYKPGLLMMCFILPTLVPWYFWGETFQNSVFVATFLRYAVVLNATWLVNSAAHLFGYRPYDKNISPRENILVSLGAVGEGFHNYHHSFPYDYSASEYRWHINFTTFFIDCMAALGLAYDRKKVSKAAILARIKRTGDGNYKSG
Description: Strain oleΔ (yeast ole1 deletion mutant) was constructed by deleting OLE1 with NAT-MX6 in BY4741, amplifying the deletion cassette from the genomic DNA of the resulting strain with primers flanking the ORF by 1000 bp upstream and downstream, transforming the resulting deletion cassette into W303 pdr1Δ pdr3Δ, and plating transformants on YPD media containing G418 (200 μg/mL) and nourseothricin ([…]) with 0.01% TWEEN®-20 and 0.5 mM oleic and palmitoleic acids.
The coding sequence of yeast OLE1 was also cloned into this plasmid). These clones were then transformed into the ole1Δ strain and plated on CSM-Ura media (CSM lacking uracil) with 2% glucose (w/v) and independent colonies were isolated and amplified.
All compound profiling experiments were performed using the same basic protocol. Different genetic backgrounds (e.g., gene deletions) or conditions (e.g., addition of oleic and palmitoleic acid) were replaced as indicated below.
Yeast were cultured using standard techniques in complete synthetic media (CSM) and yeast nitrogen base supplemented with 2% (w/v) carbon source (glucose, raffinose, or galactose) to regulate the expression of the toxic disease protein. An initial starter culture was inoculated in 3 mL CSM-Glucose media and incubated overnight in a 30° C. shaker incubator (225 rpm). Saturated morning cultures were then diluted 1:20 in fresh CSM-Raffinose media and grown for 6 h to an OD600 (optical density) of ˜0.4-0.8 at 30° C. with shaking.
Compound administration was performed in two separate steps. First, 15 μL of CSM-Galactose (induces expression of toxic protein) was dispensed into clear 384 well assay plates using a MULTIDROP™ Combi reagent dispenser. […] The cultures described above were then diluted to a 2× concentration (0.03 and 0.08 for alpha-synuclein and ApoE, final ODsoo of 0.015 and 0.04) in CSM-Galactose. For wild-type and Ole1/SCD1/SCD5 plasmid-containing strains, the 2× cell density was 0.02. […] For 96-well assays (FIGS. 1A and 1B), compound dilutions in DMSO were generated in 96 well plates and 1 μL was manually pipetted into 96 well clear bottom assay plates.
For experiments using a plasmid-borne copy of Ole1, SCD1, or SCD5 (FIGS. 3B, 6, and 7), media lacking uracil (SX-Ura, where X is glucose, raffinose, or galactose), was used for all steps of the compound profiling protocol to ensure its maintenance throughout the assay.
After yeast delivery, assay plates were incubated under humidified conditions at 30° C. for 24 to 40 h. ApoE4 rescue experiments were stopped at 24 h, aSyn experiments at 40 h, Ole1 at 24 h, and SCD1/SCD5 at 40 h. The growth of yeast was monitored by reading the ODsoo of each well using a microplate reader (Perkin Elmer EnVision™).

[1] = growth inhibition of humanized yeast strain expressing human SCD5
[2] = growth inhibition of humanized yeast strain expressing human SCD1
[3] = humanized yeast strain expressing SCD5
[4] = humanized yeast strain expressing SCD1

| SMILES | pIC50 (SCD5; humanized yeast strain, 40 h) | pIC50 (SCD1; humanized yeast strain, 40 h) | other results |
| --- | --- | --- | --- |
| CC(C)n1ncc2ccc(-c3noc([C@H]4CC[C@@H](O)CC4)n3)cc21 [Compound 654] | – | – | pIC50 (SCD5; [1]): < 4.35; pIC50 (SCD1; [2]): < 4.35 |
| O=C(N1CCC(c2noc(-c3ccc4cnn(C5CCOC5)c4c3)n2)CC1)C1(F)CCC1 (centres unmarked) [Compound 1028] | 8.00 | 6.02 | – |
| CC(C)(C)OC(=O)N1CCC(c2nsc(-c3ccc4cnn(C5COC5)c4c3)n2)CC1 [Compound 780] | 7.57 | < 4.35 | – |
| CC(C)(C)OC(=O)N1CCC(c2nc(-c3ccc4cnn(C5CC5)c4c3)no2)CC1 [Compound 360] | – | – | pIC50 (SCD5; [3]): < 4.35; SCD5 % Max Inhibition (SCD5; [3]): 2.38%; SCD1 % Max Inhibition (SCD1; [4]): 64.03% |
| CC(C)c1noc2ccc(-c3noc(C4CCN(C(=O)OC(C)(C)C)CC4)n3)cc12 [Compound 639] | – | – | pIC50 (SCD5; [1]): 5.32; pIC50 (SCD1; [2]): < 4.35 |
| CC(C)(C)OC(=O)N1CCC(c2nc(-c3ccn4cnc(I)c4c3)no2)CC1 [Compound 858] | 6.58 | < 4.35 | – |
| Cc1nn(C)c2cc(-c3noc(C4CCN(C(=O)CNC(=O)OC(C)(C)C)CC4(F)F)n3)ccc12 (centres unmarked) [Compound 527] | – | – | pIC50 (SCD5; [3]): 5.84; pIC50 (SCD1; [4]): 6.02 |
| CC(C)(C)OC(=O)N1C[C@@H]2[C@H](C1)[C@H]2NC(=O)OCc1ccccc1 [Compound 774] | < 4.35 | < 4.35 | – |
| CC(=O)N1CC(n2ncc3ccc(-c4nc(N5CCn6c(Cl)cnc6C5)no4)cc32)C1 [Compound 935] | < 4.35 | < 4.35 | – |
| CC(C)n1ncc2ccc(-c3nc(N4CCN(C(=O)OC5(C)CC5)CC4)no3)cc21 [Compound 682] | – | – | pIC50 (SCD5; [1]): 8.00; pIC50 (SCD1; [2]): < 4.35 |
| CC(C)n1ncc2ccc(-c3nc(C4CCN(C(=O)C5(O)CC5)CC4)no3)cc21 [Compound 722] | – | – | pIC50 (SCD5; [1]): 5.86; pIC50 (SCD1; [2]): < 4.35 |
| CC(C)n1ncc2ccc(-c3noc(N4CCC(C5COC5)CC4)n3)cc21 [Compound 743] | – | – | pIC50 (SCD5; [1]): 4.83; pIC50 (SCD1; [2]): < 4.35 |
| CCC(=O)N1CCC(c2noc(-c3ccc4c(C)nn(C)c4c3)n2)CC1 [Compound 939] | 4.96 | < 4.35 | – |
| CC1(OC(=O)N2CCN(c3noc(-c4ccc5cnn(C6COC6)c5c4)n3)CC2)CC1 [Compound 735] | – | – | pIC50 (SCD5; [1]): 8.00; pIC50 (SCD1; [2]): 5.40 |
| O=C(C1CC12CC2)N1CCN(c2nnc(-c3ccc4cnn(C5COC5)c4c3)o2)CC1 (centres unmarked) [Compound 991] | < 4.35 | < 4.35 | – |
| CC(C)C(=O)N1CCC(c2noc(-c3cc(F)c4cnn(C5COC5)c4c3)n2)CC1 [Compound 1068] | 8.43 | < 4.35 | – |
| CC(C)(C)OC(=O)N1CCC(c2nc(-c3ccc4cnn(C5CCOC5)c4c3)no2)CC1 (centres unmarked) [Compound 650] | – | – | pIC50 (SCD5; [1]): 7.89; pIC50 (SCD1; [2]): 5.36 |
| CC(C)(C)OC(=O)N1CCC(c2nc(-c3ccc4cnn([C@H]5C[C@@H](O)C5)c4c3)no2)CC1 [Compound 822] | 6.95 | < 4.35 | – |
| Cc1nn(C)c2cc(-c3noc(C4CCN(C(=O)CNC(=O)c5ccc(Cl)cn5)CC4(F)F)n3)ccc12 (centres unmarked) [Compound 553] | – | – | pIC50 (SCD5; [3]): 6.05; pIC50 (SCD1; [4]): 5.24 |
| CC(C)(C)OC(=O)N1CC=C(c2cnc(-c3ccc4cnn(C5COC5)c4c3)nc2)CC1 [Compound 984] | < 4.35 | < 4.35 | – |
| COC(=O)N1CCC(c2nc(-c3ccc4cnn([C@@H]5CCOC5)c4c3)no2)CC1 [Compound 907] | 7.40 | < 4.35 | – |
| CC(C)(C)OC(=O)N1CCC(c2noc(-c3cc(F)c4cnn(C5COC5)c4c3)n2)CC1 [Compound 860] | 6.32 | < 4.35 | – |

| SMILES | pIC50 (SCD5; humanized yeast strain, 40 h) | pIC50 (SCD1; humanized yeast strain, 40 h) | other results |
| --- | --- | --- | --- |
| CC(C)C(=O)N1CCC(c2noc(-c3ccc(F)c(N4CCOCC4)c3)n2)CC1 [Compound 1162] | 7.69 | 4.76 | – |
| CC(C)C(=O)N1CCC(c2noc(-c3cccc(C4CCOC4)n3)n2)CC1 (centres unmarked) [Compound 1188] | < 4.35 | < 4.35 | – |
| O=C(c1ncccc1F)N1CCC(c2noc(-c3ccc4cnn(C5COC5)c4c3)n2)CC1 [Compound 881] | 8.00 | < 4.35 | – |
| CC(C)n1ncc2ccc(-c3noc(N4CCn5c(Cl)cnc5C4)n3)cc21 [Compound 805] | 5.03 | < 4.35 | – |
| CC(=O)N1CC(n2ncc3ccc(-c4nc(N5CCN(C(=O)OC(C)(C)C)CC5)no4)cc32)C1 [Compound 915] | 4.99 | < 4.35 | – |
| CC(C)n1ncc2cnc(-c3cc(C4CCN(C(=O)OC5(C)CC5)CC4)on3)cc21 [Compound 919] | 6.74 | < 4.35 | – |
| CC(C)n1ncc2ccc(-c3noc(C4CCN(C(=O)CC5CC5(F)F)CC4)n3)cc21 (centres unmarked) [Compound 870] | 5.37 | < 4.35 | – |
| CC(C)C(=O)N1CC[C@H](c2noc(-c3ccc4cnn(C5COC5)c4c3)n2)C[C@H]1C [Compound 1058] | 8.44 | < 4.35 | – |
| Cc1nn(C)c2cc(-c3noc(C4CCN(C(=O)CNC(=O)c5ccc(Cl)cc5)CC4(F)F)n3)ccc12 (centres unmarked) [Compound 554] | – | – | pIC50 (SCD5; [3]): 5.97; pIC50 (SCD1; [4]): 5.39 |
| COC(=O)N1CCC(F)(c2noc(-c3ccc4cnn(C5COC5)c4c3)n2)CC1 [Compound 892] | 8.00 | < 4.35 | – |
| COC(=O)N1CCC(c2nc(-c3ccc4cnn(C5CCOC5)c4c3)no2)CC1 (centres unmarked) [Compound 776] | 7.60 | < 4.35 | – |
| CC(C)n1ncc2ccc(-c3noc(N4CCN5C(=O)N(C)CC5C4)n3)cc21 (centres unmarked) [Compound 1108] | < 4.35 | < 4.35 | – |
| COC(=O)N1CCCN(c2noc(-c3ccc4cnn(C5COC5)c4c3)n2)CC1 [Compound 857] | 4.57 | < 4.35 | – |
| COC(=O)N1CCC(c2noc(-c3ccc4cnn(C5CCOC5)c4c3)n2)CC1 (centres unmarked) [Compound 813] | 8.00 | < 4.35 | – |
| COCCc1nn(C(C)C)c2cc(-c3noc(C4CCN(C(=O)OC(C)(C)C)CC4)n3)ccc12 [Compound 702] | – | – | pIC50 (SCD5; [1]): < 4.35; pIC50 (SCD1; [2]): < 4.35 |
| CC(C)(C)OC(=O)N1CCC(c2noc(-c3cccc(C4CCOC4)n3)n2)CC1 (centres unmarked) [Compound 1189] | 5.11 | < 4.35 | – |
| CC1(C(=O)N2CCC(c3noc(-c4ccnc(C5CCOC5)c4)n3)CC2)CCC1 (centres unmarked) [Compound 1179] | 6.96 | < 4.35 | – |
| CC(CF)n1ncc2ccc(-c3noc(C4CCN(C(=O)CC5(C)CC5)CC4)n3)cc21 (centres unmarked) [Compound 585] | – | – | pIC50 (SCD5; [3]): 5.74; pIC50 (SCD1; [4]): < 4.35 |
| COC(=O)N1CCC(F)(c2nc(-c3ccc4cnn(C(C)C)c4c3)no2)CC1 [Compound 622] | – | – | pIC50 (SCD5; [1]): 5.79; pIC50 (SCD1; [2]): < 4.35 |
| CC(C)(C)OC(=O)N1CC=C(c2nc(-c3ccc4cnn(C5COC5)c4c3)ns2)CC1 [Compound 633] | – | – | pIC50 (SCD5; [1]): 6.67; pIC50 (SCD1; [2]): < 4.35 |
| O=C(c1ccccc1Cl)N1CCC(c2noc(-c3ccc4cnn(C5COC5)c4c3)n2)CC1 [Compound 697] | – | – | pIC50 (SCD5; [1]): 7.23; pIC50 (SCD1; [2]): < 4.35 |
| CC(C)(C)OC(=O)N1CCC(c2cnc(-c3ccc4cnn(C5COC5)c4c3)nc2)CC1 [Compound 985] | 5.59 | < 4.35 | – |
